Experimental data from patent EP4745135A1 (Gluetacs Therapeutics (Shanghai) Co., Ltd., priority 2023, dated 2025).

What was measured:
[1] = tested on: Human multiple myeloma cell (MM.1S); experiment: Tumor cell proliferation inhibition (CellTiter-Meiluncell luminescent cell viability assay); settings: for inhibition at 0.01 µM / inhibition at 0.5 µM: Homo sapiens, MM1.S, 96 h; for inhibition at 0.01 µM: read-out: Inhibition Rate at 10 nM (%); for Inhibition Rate at 500 nM (%): MM.1S, 96 hours; for inhibition at 0.5 µM: read-out: Inhibition Rate at 500 nM (%)
[2] = tested on: Human myeloid monocytic leukemia cell (MV-4-11); experiment: as above; settings: MV4-11, 96 h; for inhibition at 0.01 µM: read-out: Inhibition Rate at 10 nM (%); for inhibition at 0.5 µM: read-out: Inhibition Rate at 500 nM (%)
[3] = target: T1, human Cereblon WT GST-tagged protein (Homo sapiens, UniProt Q96SW2); experiment: CRBN-binding affinity, HTRF (CEREBLON BINDING kit); settings: for inhibition at 0.5 µM: read-out: Inhibition Rate at 0.5 µM (%); for inhibition at 2 µM: read-out: Inhibition Rate at 2 µM (%)
T1 construct: purchased CISBIO 64BDCRBNPEH
T1 sequence (Q96SW2 whole entry): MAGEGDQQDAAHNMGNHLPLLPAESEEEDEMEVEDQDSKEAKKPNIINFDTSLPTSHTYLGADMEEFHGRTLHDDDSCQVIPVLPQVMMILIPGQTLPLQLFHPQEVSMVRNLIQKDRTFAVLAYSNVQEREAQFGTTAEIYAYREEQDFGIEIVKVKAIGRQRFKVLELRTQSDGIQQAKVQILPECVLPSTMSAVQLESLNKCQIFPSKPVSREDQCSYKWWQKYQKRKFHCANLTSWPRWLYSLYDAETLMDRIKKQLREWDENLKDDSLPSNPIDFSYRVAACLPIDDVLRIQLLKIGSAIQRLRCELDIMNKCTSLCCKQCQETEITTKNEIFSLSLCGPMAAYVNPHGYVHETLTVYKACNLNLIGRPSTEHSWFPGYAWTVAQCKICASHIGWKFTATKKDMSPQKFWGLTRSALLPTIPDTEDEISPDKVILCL

[4] = target: T2, WEE1 (Homo sapiens, UniProt P30291+Q96SW2); experiment: Western blot, degradation of substrate protein in hPBMCs; assay type: cell-based
T2 construct: effects of the compounds of the present disclosure on the expression of target proteins in cells; endogenous in cells; host or cells: human PBMCs (Milecell Biotechnologies)
T2 sequence (P30291 whole entry): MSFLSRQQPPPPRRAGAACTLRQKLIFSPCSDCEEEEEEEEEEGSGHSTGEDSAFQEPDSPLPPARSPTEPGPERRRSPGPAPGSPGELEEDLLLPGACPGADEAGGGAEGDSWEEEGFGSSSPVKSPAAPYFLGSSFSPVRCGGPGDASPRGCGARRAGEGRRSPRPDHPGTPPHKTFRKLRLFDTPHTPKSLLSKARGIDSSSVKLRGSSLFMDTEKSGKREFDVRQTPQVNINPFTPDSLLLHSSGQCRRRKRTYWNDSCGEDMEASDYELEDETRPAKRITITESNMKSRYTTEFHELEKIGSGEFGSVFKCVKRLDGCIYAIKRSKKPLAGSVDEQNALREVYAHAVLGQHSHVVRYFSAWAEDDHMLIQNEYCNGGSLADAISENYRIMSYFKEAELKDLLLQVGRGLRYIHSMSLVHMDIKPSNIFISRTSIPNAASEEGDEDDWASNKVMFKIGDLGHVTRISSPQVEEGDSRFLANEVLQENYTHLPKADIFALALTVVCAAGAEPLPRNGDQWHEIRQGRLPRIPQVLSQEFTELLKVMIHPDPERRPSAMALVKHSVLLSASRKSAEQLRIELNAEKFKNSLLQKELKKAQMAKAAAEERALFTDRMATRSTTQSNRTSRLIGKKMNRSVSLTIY
T2 sequence (Q96SW2 whole entry): as the sequence (Q96SW2 whole entry) above
T2 sequence (Q16531 whole entry partner): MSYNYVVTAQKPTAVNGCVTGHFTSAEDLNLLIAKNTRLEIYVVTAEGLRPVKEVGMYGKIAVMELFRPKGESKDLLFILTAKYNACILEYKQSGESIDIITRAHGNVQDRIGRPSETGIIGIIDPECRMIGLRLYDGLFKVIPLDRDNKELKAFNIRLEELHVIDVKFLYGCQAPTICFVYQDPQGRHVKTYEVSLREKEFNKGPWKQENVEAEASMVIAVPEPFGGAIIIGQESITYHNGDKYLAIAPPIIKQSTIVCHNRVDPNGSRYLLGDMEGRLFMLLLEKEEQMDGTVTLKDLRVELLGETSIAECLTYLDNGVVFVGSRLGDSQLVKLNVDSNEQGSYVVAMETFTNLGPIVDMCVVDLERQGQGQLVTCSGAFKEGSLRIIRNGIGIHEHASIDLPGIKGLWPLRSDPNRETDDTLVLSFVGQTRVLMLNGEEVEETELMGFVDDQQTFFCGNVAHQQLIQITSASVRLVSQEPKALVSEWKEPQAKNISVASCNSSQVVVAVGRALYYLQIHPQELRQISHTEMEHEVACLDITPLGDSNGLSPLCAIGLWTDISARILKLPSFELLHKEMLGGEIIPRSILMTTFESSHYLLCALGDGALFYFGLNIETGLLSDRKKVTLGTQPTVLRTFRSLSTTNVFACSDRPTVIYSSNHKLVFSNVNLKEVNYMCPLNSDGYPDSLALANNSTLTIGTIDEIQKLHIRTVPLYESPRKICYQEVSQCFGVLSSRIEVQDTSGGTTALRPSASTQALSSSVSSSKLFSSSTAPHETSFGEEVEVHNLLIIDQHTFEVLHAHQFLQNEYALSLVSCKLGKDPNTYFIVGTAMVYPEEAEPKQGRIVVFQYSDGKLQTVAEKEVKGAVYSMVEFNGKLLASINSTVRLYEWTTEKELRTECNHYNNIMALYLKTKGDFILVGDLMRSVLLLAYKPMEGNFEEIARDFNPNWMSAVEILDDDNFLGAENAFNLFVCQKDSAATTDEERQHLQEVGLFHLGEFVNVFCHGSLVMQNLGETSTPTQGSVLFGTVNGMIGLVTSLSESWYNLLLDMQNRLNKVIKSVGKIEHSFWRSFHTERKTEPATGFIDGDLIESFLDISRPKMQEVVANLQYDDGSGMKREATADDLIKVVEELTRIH

[5] = target: T3, CK1α (Homo sapiens, UniProt P48729+Q96SW2); experiment: as above; assay type: cell-based
T3 construct: effects of the compounds of the present disclosure on the expression of target proteins in cells; endogenous in cells; host or cells: human PBMCs (Milecell Biotechnologies)
T3 sequence (P48729 whole entry): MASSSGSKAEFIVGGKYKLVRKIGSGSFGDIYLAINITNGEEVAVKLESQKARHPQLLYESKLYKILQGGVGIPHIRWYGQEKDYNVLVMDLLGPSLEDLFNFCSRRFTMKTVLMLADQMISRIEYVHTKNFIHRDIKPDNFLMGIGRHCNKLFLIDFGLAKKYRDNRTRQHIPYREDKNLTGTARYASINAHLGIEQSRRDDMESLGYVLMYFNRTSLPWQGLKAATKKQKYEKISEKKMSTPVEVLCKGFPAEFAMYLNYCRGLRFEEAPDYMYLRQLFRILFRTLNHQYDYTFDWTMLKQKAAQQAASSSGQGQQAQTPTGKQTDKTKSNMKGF
T3 sequence (Q96SW2 whole entry): as the sequence (Q96SW2 whole entry) above
T3 sequence (Q16531 whole entry partner): as the sequence (Q16531 whole entry partner) above

[6] = target: T4, IKZF2 (Homo sapiens, UniProt Q96SW2+Q9UKS7); experiment: as above; assay type: cell-based
T4 construct: effects of the compounds of the present disclosure on the expression of target proteins in cells; endogenous in cells; host or cells: human PBMCs (Milecell Biotechnologies)
T4 sequence (Q9UKS7 whole entry): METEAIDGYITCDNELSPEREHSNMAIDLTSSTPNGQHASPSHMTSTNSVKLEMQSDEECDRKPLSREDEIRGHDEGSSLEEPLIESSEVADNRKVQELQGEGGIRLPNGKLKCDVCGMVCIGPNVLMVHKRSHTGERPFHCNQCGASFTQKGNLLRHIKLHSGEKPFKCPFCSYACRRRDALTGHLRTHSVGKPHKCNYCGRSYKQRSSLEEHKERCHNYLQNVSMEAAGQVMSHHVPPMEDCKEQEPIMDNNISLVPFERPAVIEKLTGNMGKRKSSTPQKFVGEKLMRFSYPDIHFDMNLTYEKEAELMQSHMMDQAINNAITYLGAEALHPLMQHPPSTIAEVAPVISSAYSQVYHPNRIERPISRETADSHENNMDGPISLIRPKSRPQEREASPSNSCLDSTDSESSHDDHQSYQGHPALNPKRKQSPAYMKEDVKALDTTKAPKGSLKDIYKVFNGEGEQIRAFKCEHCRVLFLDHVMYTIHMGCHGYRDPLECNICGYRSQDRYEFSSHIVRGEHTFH
T4 sequence (Q96SW2 whole entry): as the sequence (Q96SW2 whole entry) above
T4 sequence (Q16531 whole entry partner): as the sequence (Q16531 whole entry partner) above

[7] = target: T5, IKZF1 (Homo sapiens, UniProt Q13422+Q96SW2); experiment: as above; assay type: cell-based
T5 construct: effects of the compounds of the present disclosure on the expression of target proteins in cells; endogenous in cells; host or cells: human PBMCs (Milecell Biotechnologies)
T5 sequence (Q13422 whole entry): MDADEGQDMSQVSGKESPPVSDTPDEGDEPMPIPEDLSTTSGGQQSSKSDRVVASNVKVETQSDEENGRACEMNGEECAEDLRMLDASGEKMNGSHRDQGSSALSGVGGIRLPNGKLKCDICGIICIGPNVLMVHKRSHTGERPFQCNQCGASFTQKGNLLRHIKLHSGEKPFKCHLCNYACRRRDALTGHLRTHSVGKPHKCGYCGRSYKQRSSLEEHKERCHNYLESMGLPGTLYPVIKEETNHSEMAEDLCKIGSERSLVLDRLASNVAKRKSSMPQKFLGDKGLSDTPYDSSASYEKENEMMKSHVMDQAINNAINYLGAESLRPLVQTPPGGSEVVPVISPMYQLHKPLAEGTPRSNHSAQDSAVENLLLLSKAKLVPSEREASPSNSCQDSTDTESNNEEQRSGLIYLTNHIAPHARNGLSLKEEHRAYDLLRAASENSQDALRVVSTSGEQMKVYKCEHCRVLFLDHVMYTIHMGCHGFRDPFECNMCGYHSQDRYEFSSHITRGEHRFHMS
T5 sequence (Q96SW2 whole entry): as the sequence (Q96SW2 whole entry) above
T5 sequence (Q16531 whole entry partner): as the sequence (Q16531 whole entry partner) above

[8] = target: T6, IKZF3 (Homo sapiens, UniProt Q96SW2+Q9UKT9); experiment: as above; assay type: cell-based
T6 construct: effects of the compounds of the present disclosure on the expression of target proteins in cells; endogenous in cells; host or cells: human PBMCs (Milecell Biotechnologies)
T6 sequence (Q9UKT9 whole entry): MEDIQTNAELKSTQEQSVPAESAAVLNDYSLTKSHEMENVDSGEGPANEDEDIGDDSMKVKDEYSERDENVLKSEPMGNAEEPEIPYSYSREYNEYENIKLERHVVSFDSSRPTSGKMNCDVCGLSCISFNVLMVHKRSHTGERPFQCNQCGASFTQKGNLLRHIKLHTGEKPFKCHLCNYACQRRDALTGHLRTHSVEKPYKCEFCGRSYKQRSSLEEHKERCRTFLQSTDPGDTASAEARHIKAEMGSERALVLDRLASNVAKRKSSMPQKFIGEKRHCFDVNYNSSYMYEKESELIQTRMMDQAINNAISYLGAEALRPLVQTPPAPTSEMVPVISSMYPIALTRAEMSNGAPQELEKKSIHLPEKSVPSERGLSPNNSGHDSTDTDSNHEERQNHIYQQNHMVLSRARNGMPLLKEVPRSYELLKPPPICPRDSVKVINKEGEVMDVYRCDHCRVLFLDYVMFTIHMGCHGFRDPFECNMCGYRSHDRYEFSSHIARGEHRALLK
T6 sequence (Q96SW2 whole entry): as the sequence (Q96SW2 whole entry) above
T6 sequence (Q16531 whole entry partner): as the sequence (Q16531 whole entry partner) above

[9] = tested on: GSPT1; experiment: as above; assay type: cell-based, Human
[10] = Western blot, 24 hours of compound treatment, compounds tested at 50 nM and 500 nM (concentration for the table not stated)
[11] = 24 hours treatment, compounds at 50 nM and 500 nM (concentration behind the class not stated)

| SMILES | inhibition at 0.01 µM [1] [%] | Inhibition Rate at 500 nM (%) [1] | inhibition at 0.01 µM [2] [%] | inhibition at 0.5 µM [2] [%] | inhibition at 0.5 µM [3] [%] | inhibition at 2 µM [3] [%] | inhibition at 0.5 µM [1] [%] | Wee1 substrate protein remaining % [4, 10] | CK1α substrate protein remaining % [5, 10] | IKZF2 substrate protein remaining % [6, 10] | IKZF 1 substrate protein remaining % [7, 10] | IKZF3 substrate protein remaining % [8, 10] | GSPT1 substrate protein remaining % [9, 10] | Wee1 substrate protein remaining % [4, 11] | CK1α substrate protein remaining % [5, 11] | IKZF2 substrate protein remaining % [6, 11] | IKZF 1 substrate protein remaining % [7, 11] | IKZF3 substrate protein remaining % [8, 11] | GSPT1 substrate protein remaining % [9, 11] |
| --- | --- | --- | --- | --- | --- | --- | --- | --- | --- | --- | --- | --- | --- | --- | --- | --- | --- | --- | --- |
| O=C1CCC(N2Cc3cc(CN4CCN(c5c(F)c(F)nc(F)c5F)CC4)ccc3C2=S)C(=O)N1 (stereo not drawn) [GT-09250, 3-(5-((4-(perfluoropyridin-4-yl)piperazin-1-yl)methyl)-1-thioxoisoindolin-2-yl)piperidine-2,6-dione] | 30 to 40 | la7 | 30 to 40 | 40 to 60 | 60 to 80 | 80 to 100 | – | – | – | – | – | – | – | – | – | – | – | – | – |
| O=C1CCC(N2Cc3cc(CN4CCN(c5ccc(F)cc5)CC4)ccc3C2=S)C(=O)N1 (stereo not drawn) [GT-08240, 3-(5-((4-(4-fluorophenyl)piperazin-1-yl)methyl)-1-thioxoisoindolin-2-yl)piperidine-2,6-dione] | 50 to 60 | – | 0 to 5 | 40 to 60 | 53 to 60 | 80 to 100 | 50 to 60 | B (80%< substrate protein remaining %≤ 100%) | B (80%< substrate protein remaining %≤ 100%) | B (80%< substrate protein remaining %≤ 100%) | B (80%< substrate protein remaining %≤ 100%) | B (80%< substrate protein remaining %≤ 100%) | A (0% ≤ substrate protein remaining % ≤ 80%) | – | – | – | – | – | – |
| O=C1CCC(N2Cc3c(CN4CC=C(c5cccc6c(F)cccc56)CC4)cccc3C2=S)C(=O)N1 (stereo not drawn) [GT-08856, 3-(4-((4-(5-fluoronaphthalen-1-yl)-3,6-dihydropyridin-1(2H)-yl)methyl)-1-thioxoisoindolin-2-yl)piperidine-2,6-dione] | 20 to 30 | – | 40 to 60 | 40 to 60 | 30 to 40 | 53 to 60 | 40 to 50 | – | – | – | – | – | – | – | – | – | – | – | – |
| O=C1CCC(N2Cc3c(CN4CCC(c5ccon5)CC4)cccc3C2=S)C(=O)N1 (stereo not drawn) [GT-08817, 3-(4-((4-(isoxazol-3-yl)piperidin-1-yl)methyl)-1-thioxoisoindolin-2-yl)piperidine-2,6-dione] | 20 to 30 | – | 40 to 60 | 30 to 40 | 53 to 60 | 80 to 100 | 40 to 50 | A (0% ≤ substrate protein remaining % ≤ 80%) | B (80%< substrate protein remaining %≤ 100%) | B (80%< substrate protein remaining %≤ 100%) | B (80%< substrate protein remaining %≤ 100%) | B (80%< substrate protein remaining %≤ 100%) | B (80%< substrate protein remaining %≤ 100%) | – | – | – | – | – | – |
| O=C1CCC(N2Cc3cc(CN4C5CCC4CN(C(c4ccccc4)c4ccccc4)C5)ccc3C2=S)C(=O)N1 (stereo not drawn) [GT-07850, 3-(5-((3-benzhydryl-3,8-diazabicyclo[3.2.1]octan-8-yl)methyl)-1-thioxoisoindolin-2-yl)piperidine-2,6-dione] | 30 to 40 | la7 | 40 to 60 | 40 to 60 | 40 to 53 | 80 to 100 | – | A (0% ≤ substrate protein remaining % ≤ 80%) | B (80%< substrate protein remaining %≤ 100%) | A (0% ≤ substrate protein remaining % ≤ 80%) | B (80%< substrate protein remaining %≤ 100%) | B (80%< substrate protein remaining %≤ 100%) | A (0% ≤ substrate protein remaining % ≤ 80%) | – | – | – | – | – | – |
| O=C1CCC(N2Cc3c(CN4C5CCC4CN(c4cccc(Cl)c4Cl)C5)cccc3C2=S)C(=O)N1 (stereo not drawn) [GT-08471, 3-(4-((3-(2,3-dichlorophenyl)-3,8-diazabicyclo[3.2.1]octan-8-yl)methyl)-1-thioxoisoindolin-2-yl)piperidine-2,6-dione] | 40 to 50 | – | 40 to 60 | 40 to 60 | 30 to 40 | 60 to 80 | 40 to 50 | B (80%< substrate protein remaining %≤ 100%) | B (80%< substrate protein remaining %≤ 100%) | B (80%< substrate protein remaining %≤ 100%) | B (80%< substrate protein remaining %≤ 100%) | B (80%< substrate protein remaining %≤ 100%) | A (0% ≤ substrate protein remaining % ≤ 80%) | – | – | – | – | – | – |
| O=C1CCC(N2Cc3c(CN4CCN(c5ncnc6ccsc56)CC4)cccc3C2=S)C(=O)N1 (stereo not drawn) [GT-08970, 3-(4-((4-(thieno[3,2-d]pyrimidin-4-yl)piperazin-1-yl)methyl)-1-thioxoisoindolin-2-yl)piperidine-2,6-dione] | – | – | 18 to 25 | 40 to 60 | 60 to 80 | 80 to 100 | – | – | – | – | – | – | – | A (0% ≤ substrate protein remaining % ≤ 80%) | B (80%< substrate protein remaining %≤ 100%) | B (80%< substrate protein remaining %≤ 100%) | B (80%< substrate protein remaining %≤ 100%) | B (80%< substrate protein remaining %≤ 100%) | B (80%< substrate protein remaining %≤ 100%) |
| O=C1CCC(N2Cc3c(CN4CCN(c5ccc(Cl)cc5Cl)CC4)cccc3C2=S)C(=O)N1 (stereo not drawn) [GT-08500, 3-(4-((4-(2,4-dichlorophenyl)piperazin-1-yl)methyl)-1-thioxoisoindolin-2-yl)piperidine-2,6-dione] | – | – | 30 to 40 | 40 to 60 | 40 to 53 | 60 to 80 | – | A (0% ≤ substrate protein remaining % ≤ 80%) | B (80%< substrate protein remaining %≤ 100%) | B (80%< substrate protein remaining %≤ 100%) | B (80%< substrate protein remaining %≤ 100%) | B (80%< substrate protein remaining %≤ 100%) | A (0% ≤ substrate protein remaining % ≤ 80%) | – | – | – | – | – | – |
| O=C1CCC(N2Cc3c(CN4CCC(c5ccco5)CC4)cccc3C2=S)C(=O)N1 (stereo not drawn) [GT-08310, 3-(4-((4-(furan-2-yl)piperidin-1-yl)methyl)-1-thioxoisoindolin-2-yl)piperidine-2,6-dione] | – | – | 40 to 60 | 60 to 80 | 30 to 40 | 60 to 80 | – | – | – | – | – | – | – | A (0% ≤ substrate protein remaining % ≤ 80%) | B (80%< substrate protein remaining %≤ 100%) | B (80%< substrate protein remaining %≤ 100%) | B (80%< substrate protein remaining %≤ 100%) | B (80%< substrate protein remaining %≤ 100%) | B (80%< substrate protein remaining %≤ 100%) |
